Reference: patent US4229435A, “Preparation of blood fraction” (priority 1978, dated 1980)

Key:
factor IX = test: Selective decrease of coagulation activity at low temperature (Example 7); format: biochemical; conditions: 0.2 mg DTT per ml plasma, 22° C.
Experimental: By addition of reducing agent, e.g. 0.2 mg DTT per ml plasma, at a low temperature, e.g. 22° C., it is possible to selectively influence the decrease of the coagulation activity in the different factors.

[1] = test system: coagulation factors VII, IX, X, XI and XII; test: Effect of reducing substance added to blood or plasma on coagulation factors; format: biochemical; conditions: addition to blood

Structure (SMILES): O[C@H](CS)[C@H](O)CS [DTT, dithiothreitol]
- activity of factor IX compared with factor X (factor IX): the activity of factor IX is not influenced in as high a degree as the activity of factor X
- content of coagulation factors VII, IX, X, XI and XII in the resulting plasma [1]: reduces the content of the coagulation factors VII, IX, X, XI and XII to a large extent
